The values that follow come from patent US12077786B2, “Methods of cell selection and modifying cell metabolism” (LONZA LTD, priority 2018, dated 2024).

The structures appear in SMILES notation.

For experiment [1], the system named is cell pools constructed using the P5CS/eGFP vector (GSKO cells). Description: P5CS/eGFP cell pools grown without proline with P5CS inhibitor, 96 deep well plates. To be noted: with increase in inhibitor concentration; media lacking proline; 24-216 hours. Format: cell-based, Chinese hamster. The procedure:
FIGS. 8A-8F are a series of diagrams showing cell pools generated using P5CS overexpression and cultured in the absence of proline, and in the presence of L-azetidine-2-carboxylic acid, a P5CS inhibitor. L-azetidine-2-carboxylic acid was added at a variety of different concentrations and cells were cultured in 96 deep well plates for 9 days. These cells were analyzed for cell growth, as measured by viable cell concentration (FIG. 8A) and culture viability (FIG. 8B). Cells were also analyzed for mean culture fluorescence (FIG. 8C) and percentage of cells exceeding the predetermined thresholds of 10^2 (FIG. 8D) and 10^3 (FIG. 8E).
FIGS. 9A-9F are a series of diagrams showing cell pools generated using P5CS overexpression and cultured in the absence of proline, and in the presence of 3,4-dehydro-L-proline, a P5CS inhibitor. 3,4-dehydro-L-proline was added at a variety of different concentrations and cells were cultured in 96 deep well plates for 9 days. These cells were analyzed for cell growth, as measured by viable cell concentration (FIG. 9A) and culture viability (FIG. 9B). Cells were also analyzed for mean culture fluorescence (FIG. 9C) and percentage of cells exceeding the predetermined thresholds of 10^2 (FIG. 9D) and 10^3 (FIG. 9E).
FIGS. 10A-10F are a series of diagrams showing cell pools generated using P5CS overexpression and cultured in the absence of proline, and in the presence of L-4-thiazolidinecarboxylic acid, a P5CS inhibitor. L-4-thiazolidinecarboxylic acid was added at a variety of different concentrations and cells were cultured in 96 deep well plates for 9 days. These cells were analyzed for cell growth, as measured by viable cell concentration (FIG. 10A) and culture viability (FIG. 10B). Cells were also analyzed for mean culture fluorescence (FIG. 10C) and percentage of cells exceeding the predetermined thresholds of 10^2 (FIG. 10D) and 10^3 (FIG. 10E).
In order to assess the capacity of the proline/P5CS system to generate recombinant cell pools, vectors comprising the P5CS gene and a gene of interest were transfected into cells and subsequently cultured in the absence of proline in an attempt to generate recombinant cell pools. Briefly, 1×10^7 Lonza's GSKO cells were electroporated with 20 μg plasmid which was first linearized using PvuI restriction enzyme (NEB) and purified using sodium acetate and ethanol precipitation. The construct used contained both the P5CS gene for evaluation as a selection marker and eGFP as a reporter gene. Transfections were carried out in CM76 medium in the absence of proline but supplemented with L-glutamine to achieve a final concentration of 6 mM. The cells were then cultured in 25 ml of this medium in a T75 flask for 10 days before being transferred to 10 ml suspension culture, also in proline absent medium. The resulting pool was analyzed using flow cytometry. Cell samples were first centrifuged at 1,000 rpm for 5 minutes and resuspended in 500 μl PBS. Samples were then loaded onto the probe of a FACScalibur™ (BD biosciences) and fluorescence intensity was measured in relation to the cell count. The forward scatter (FSC) was measure using the E-1 amplifier and side scatter (SSC) set to 465 whilst FL1 recorded cells at 473; all settings were converted to Log scales. In order to facilitate the adherence of suspension cells, coverslips were first submerged in poly-L-lysine and incubated for 15 minutes at room temperature. Coverslips were then removed and left to dry in a sterile environment before transferring to a 24 well plate. Cells were cultured at 37° C. overnight to facilitate adhering of cells to the coverslip before aspirating the medium and adding 250 μl of 4% paraformaldehyde in PBS and incubating for 20 minutes at 37° C. to fix cells. Subsequently two 1 ml PBS washes were carried out before 250 μl 0.1% triton X100 in PBS was added and incubated for 5 minutes at room temperature to permeablize cells. […]

For experiment [2] the test system is unchanged. Description: P5CS/eGFP cell pools grown without proline with P5CS inhibitor, static 24 well plates. Format: cell-based, Chinese hamster. The conditions noted are these: with increase in inhibitor concentration; media lacking proline; 24-216 hours. The procedure:
FIGS. 11A-11E are a series of diagrams showing analysis of cell pools generated using P5CS overexpression and cultured in the absence of proline, and in the presence of L-azetidine-2-carboxylic acid, a P5CS inhibitor. L-azetidine-2-carboxylic acid was added at a variety of different concentrations and cells were cultured in static 24 well plates for 9 days. These cells were analyzed for cell growth, as measured by viable cell concentration (FIG. 11A) and culture viability (FIG. 11B). Cells were also analyzed for mean culture fluorescence (FIG. 11C) and percentage of cells exceeding the predetermined thresholds of 10^2 (FIG. 11D) and 10^3 (FIG. 11E).
FIGS. 12A-12E are a series of diagrams showing analysis of cell pools generated using P5CS overexpression and cultured in the absence of proline, and in the presence of 3,4-dehydro-L-proline, a P5CS inhibitor. 3,4-dehydro-L-proline was added at a variety of different concentrations and cells were cultured in static 24 well plates for 9 days. These cells were analyzed for cell growth, as measured by viable cell concentration (FIG. 12A) and culture viability (FIG. 12B). Cells were also analyzed for mean culture fluorescence (FIG. 12C) and percentage of cells exceeding the predetermined thresholds of 10^2 (FIG. 12D) and 10^3 (FIG. 12E). […]

Turning to `O=C(O)[C@@H]1C=CCN1` [3,4-dehydro-L-proline], in experiment [1], the “cell growth (viable cell number)” value is given as “slower cell growth” and the “mean fluorescence (eGFP)” value was “higher mean fluorescence”.
The like results for `O=C(O)[C@@H]1CSCN1` [L-4-thiazolidinecarboxylic acid] were, in that order, “slower cell growth” and “higher mean fluorescence”.
Turning to `O=C(O)[C@@H]1CCN1` [L-azetidine-2-carboxylic acid], in experiment [1], the “cell growth (viable cell number)” value is recorded as “slower cell growth” and the “mean fluorescence (eGFP)” value is on record as “higher mean fluorescence”. In addition, in experiment [2], the “cell growth (viable cell number)” value is given as “slower cell growth” and the “mean fluorescence (eGFP)” value is reported as “higher mean fluorescence”.
